Assay results reported in patent US11000518B2, “Use of combination of VEGFR inhibitor and PARP inhibitor in preparation of medicament for treating gastric cancer” (Jiangsu Hengrui Medicine Co., Ltd., priority 2016, dated 2021).
Structures can show the parent of a compound that is named as a salt.

Assays:
[1] = system: human gastric cancer PDX model STO #069; test: Efficacy on subcutaneous implantation tumor of human gastric cancer PDX model STO #069 tumor-bearing nude mice; format: in vivo, BALB/c nude mice
Description: Efficacy of the Composition of the Present Invention on the Subcutaneous Implantation Tumor of Human Gastric Cancer PDX Model STO #069 Tumor-Bearing Nude Mice
Test animals: BALB/c nude mice, 6-7 weeks old, female, purchased from Beijing Vital River Laboratory Animal Technology Co., Ltd., with laboratory animals use license No.: SCXK (Shanghai) 2015-0022 and animal certificate No.: 11400700166108, feeding condition: SPF grade.
Control group: solvent group.
Compound A: compound A (100 mg) was weighed, added with 0.5% carboxymethylcellulose solution (10 mL), vortex-mixed or ultrasonic-mixed until the solution was clear, and stored at 4° C., and the dose volume was 5 mL/kg;
Compound B: compound B (540 mg) was weighed and dissolved in purified water (31 mL), then added with 0.2% Tween 80 (0.18 mL) and 10% PEG 400 (9.0 mL), vortex-mixed until the solution was clear, followed by adding purified water to a solution volume of 90 mL and storing at 4° C., and the dose volume was 5 mL/kg;
Cisplatin: cisplatin (3 mg) was weighed and dissolved in normal saline (6.0 mL), the concentration of the solution was 0.5 mg/mL, and the solution was prepared to a total of 6.0 mL, stored at 4° C., and filtrated with a 0.22 μm Millipore Millex® membrane before each use;
Paclitaxel: paclitaxel (6 mg/mL, 1.5 mL) was formulated into a solution (1.5 mg/mL) with normal saline (6.0 mL) and stored at 4° C., which was freshly formulated before each use.
After the tumor grew to 600-700 mm^3, it was passaged in the nude mice, which were defined as passage 0 (P0); after implantation of tumor passage 0 (P0), the mice were defined as passage 1 (P1); the passage was thus defined according to the order continuously implanted in nude mice; the next passage generated from FP5 was defined as FP6, and so on; and the FP6 tumor tissue was used for this study.
(1) Tumor implantation: the STO #069 FP6 tumor tissue (which was pathologically diagnosed as gastric poorly differentiated adenocarcinoma) was cut into small pieces (˜30 mm^3), and implanted subcutaneously into the right side of the nude mice. After the mean tumor size was close to 150-250 mm^3, the mice were grouped and treated, a total of 7 groups, each group of 6 tumor-bearing mice.
(2) Observation and recording: the tumor volume was measured 2-3 times per week, the mice were weighed, and the data were recorded.
The tumor volume was measured twice a week with a caliper and measured in two dimensions, the unit is mm^3;
V=½×a×b^2, wherein a and b represented length and width, respectively.
T/C (%)=(T−T0)/(C−C0)×100%, wherein T and C represented the tumor volumes of the administration group and the solvent group at the end of the experiment, respectively; and T0 and C0 represented the tumor volumes of the administration group and the solvent group at the start of the experiment, respectively.
The endpoint of the experiment: The endpoint of the efficacy study was set to 21 days. If the tumor volume>2000 mm^3, or if a nude mouse lost more than 20% of its weight or was very ill and cannot get enough food or water, the nude mouse would be removed from the experimental group and euthanized.

[2] = system: advanced prostate cancer patients with DNA repair gene mutations; settings: phase II clinical trial; cited from earlier work
[3] = D 21, compound A 50 mg/kg PO QD × 21, compound B 30 mg/kg PO BID × 21, cisplatin 5 mg/kg IP QW × 3, paclitaxel 15 mg/kg IP QW × 3

Row | SMILES | Partial regression ([1]; 6 animals per group, same doses as TGI column) | Mean tumor volume (mm^3) (Mean ± SEM) D 0 ([1]; D 0 = first administration time (baseline), STO#069 nude mice, n = 6) | % T/C D 21 [1, 3] [%] | % tumor growth inhibition (TGI) D 21 [1, 3] [%] | Mean tumor volume (mm^3) (Mean ± SEM) D 21 [1, 3] | tumor inhibition rate ([1]; Day 21 of administration, compound A 50 mg/kg QD×21, compound B 30 mg/kg BID×21, cisplatin 5 mg/kg QW×3, paclitaxel 15 mg/kg QW×3) [%] | response [2] [%]
1 | N#CC1(c2ccc(NC(=O)c3cccnc3NCc3ccncc3)cc2)CCCC1 [Compound A, Apatinib mesylate] | 0 | 185.4 ± 17.0 | 44.68 | 55.32 | 465.9 ± 17.0 | 55.32 | 
2 | O=C(c1cc(Cc2n[nH]c(=O)c3ccccc23)ccc1F)N1CCN(C(=O)C2CC2)CC1 [Olaparib] |  |  |  |  |  |  | 88
